Experiment [1] can be described thus: consumption trials of sucralose with or without MDG in a satiated animal. Type of experiment: in vivo. The following applies: 32 mM sucralose+0.4 M MDG vs 32 mM sucralose alone, 20 trials. On the procedure: A satiated animal was given 32 mM sucralose for the first 11 trials, and then given either 32 mM sucralose alone, or 32 mM sucralose+0.4 M MDG. […] Shown are 20 trials.

A short description of experiment [2]: two-solution preference behavioral assay, artificial sweetener (AceK) versus sucrose, naive animals. The class given is in vivo, mice. From the text: To explicitly test for sugar preference in mice, applicants developed a simple behavioral assay.
During five minute trials, two groups of five naive animals were presented with an intensely sweet, artificial compound (Acesulfame potassium or AceK) and a less sweet natural sugar (sucrose) . […] Animals were then returned to their home cage and given access to either artificial sweetener (Group 1) or natural sugar (Group 2) for one hour. […] Twenty four hours later, Group 1 was given natural sugar while Group 2 was given artificial sweetener.

The subject of experiment [3] is neurons in the caudal nucleus of the solitary tract (cNST). Put plainly: cFos staining of the caudal nucleus of the solitary tract after drinking the solution. As to conditions: for cFos labeling of cNST neurons: wild-type animals, water deprived thirty-six hours, 1 mL solution by drinking. Type of experiment: in vivo, mice. Here is the method: To determine where sugar preference is encoded, applicants screen brain regions for increased expression of Fos, a proxy for neural activity, in animals challenged with sugar but not water or artificial sweetener.
Wild-type animals were water deprived for thirty-six hours and then given access to 1 mL solution of water (FIG. 3A), sucrose (FIG. 3), or artificial sweetener (FIG. 3C). Tasteless (TrpM5 knockout) animals were given water (FIG. 3D) or sucrose (FIG. 3E), The caudal nucleus of the solitary tract was analyzed using cFos staining. […] Green: c-fos antibody staining. Magenta: a neural stain (neurotrace) (FIG. 3A-3D).

Experiment [4] shares this test system. Put plainly: cFos staining of the nucleus of the solitary tract after direct infusion to the gut. The class given is in vivo. The following applies: for Fos expression in the cNST when gavaged: gavage, compared with animals drinking the same solution; for cFos labeling of cNST neurons after gut infusion: wild type animals, 0.5 mL infused directly into the gut. Here is the method:
Wild type animals were infused directly into the gut with 0.5 mL of water (FIG. 4A), sucrose (FIG. 4B), or artificial sweetener (FIG. 4C). […] Green: c-fos antibody staining. Magenta; a neural stain (neurotrace) (FIG. 4A-4C).

For a further experiment, the system named is activity in the cNST. Put plainly: silencing of cNST activity by cannula injection during sucrose exposure, sugar preference formation. Type of experiment: in vivo. From the text: When given a choice between highly concentrated artificial sweetener and a low concentration of natural sweet, animals consume the sweeter substance. However, after one exposure to natural sugar, animals switch their preference to the natural sweet (See FIG. 5). If the cNST is indeed an essential brain center for establishing sugar preference, a prediction would be that silencing the activity of the neurons in this nucleus during exposure to sugar should prevent a preference from forming. To determine if this is the case, applicants implanted a cannula above the cNST of naive animals, waited 2 weeks for recovery, and then assessed the ability of these animals to form a sugar preference. […] Prior to receiving sugar in their home cage, animals were injected with a glutamate receptor antagonist (50 nL of NBQX, […]) to reversibly silence activity in the cNST.

“Also recorded” adds a separate entry of the source.

The record followed here is patent publication US20170281772A1, “A NEURAL SUBSTRATE FOR SUGAR PREFERENCE” (The Trustees of Columbia University in the City of New York, priority 2014, published 2017).

For the compound `COC1OC(CO)C(O)C(O)C1O` [MDG, Alpha-Methyl-D-Glucopyranose], the appetitiveness/consumption of sucralose entry in experiment [1] is given as “dramatically increases the appetitiveness/consumption of sucralose; also recorded: transforms a sucralose solution into the preferred Artificial Sweetener”.
With `OC[C@H]1O[C@@](CO)(O[C@H]2O[C@H](CO)[C@@H](O)[C@H](O)[C@H]2O)[C@@H](O)[C@@H]1O` [sucrose], the “preference between artificial sweetener and sucrose after exposure to sucrose” value in experiment [2] (after one hour home-cage access to natural sugar, final preference test) was “animals change preference between artificial sweetener and sucrose after one exposure to sucrose; also recorded: both groups prefer the natural sugar”. The “cFos labeling of cNST neurons in tasteless animals” value in experiment [3] (TrpM5 knockout animals, compared with wild type) is “identical pattern of labeling”. Further, the “cFos labeling of cNST neurons” value in experiment [3] is given as “robustly labeled”. Further, in experiment [4], the “Fos expression in the cNST when gavaged” value was “identical” and the “cFos labeling of cNST neurons after gut infusion” value is reported as “robustly labeled”.
In the case of `NS(=O)(=O)c1cccc2c1c([N+](=O)[O-])cc1nc(O)c(O)nc12` [NBQX], the “formation of sugar preference with the cNST silenced” value in the experiment with activity in the cNST (50 nL of NBQX, 5 pg/mL, injected above the cNST prior to sugar in home cage, tested twenty-four hours later) is reported as “continued to prefer the artificial sweetener”. For the same compound, the “sugar preference formation after washout” value in the experiment with activity in the cNST (after the drug washed out) is on record as “regained their ability to form a preference”. Also, the “effect of silencing on sweet taste” value in the experiment with activity in the cNST (short-access assays, same animals) is listed as “does not abolish sweet taste”.
On to `CC1=CC(=O)NS(=O)(=O)O1` [AceK, Acesulfame potassium], for which the “initial consumption, AceK versus sucrose” value in experiment [2] (five minute trials, naive animals, before home-cage exposure) is “much more AceK than sucrose”. Moreover, the “cFos labeling of cNST neurons” value in experiment [3] was “almost no labeled cells at all”. In addition, in experiment [4], the “Fos expression in the cNST when gavaged” value is given as “identical” and the “cFos labeling of cNST neurons after gut infusion” value is listed as “almost no labeled cells at all”.
